2 compounds from patent US20070078124A1, “1-Aza-2-oxa-dibenzo(e,h)azulenes and their use for the treatment of central nervous system diseases and disorders” (PLIVA-ISTRAZIVACKI INSTITUT D.O.O., priority 2003, published 2007) can be followed below.

The target in one assay is T1, 5-HT2A receptor (Homo sapiens, UniProt P28223).
T1 construct: expressed in transfected cells; host or cells: CHO-K1 (or COS-7)
The assay can be described thus: radioligand ([3H]-ketanserin) competitive binding assay for 5-HT2A receptor. The settings on record: for IC50: human cortex or recombinant 5-HT2A receptor expressed in CHO-K1, read-out: binding affinity to 5-HT2A serotonin receptor expressed as IC50 value; for Ki: human cortex or recombinant 5-HT2A receptor expressed in CHO-K1, read-out: binding affinity to 5-HT2A serotonin receptor, Ki value. The method, then: (§1) The effect of the compounds of the present invention on the neurochemical steady state was determined by in vitro investigations such as a radionuclide-marked radioligand binding assay for 5-HT2A (Bonhaus D. W. Br. J. Pharmacol. 1995, 115:622; Saucier C. J. Neurochem. 1997, 68:1998) and 5-HT2C receptors (Wolf W. A. J. Neurochem. 1997, 69:1449), in vitro binding assay for σ1 receptor (Thomson W. and Donn R. Arthritis Res. 2002, 4: 302-306) and by in vivo investigations in a tail suspension test (Vogel H. G. and Vogel W. H. Drug Discovery and Evaluation Pharmacological Assays, Springer 1997, 304), in amphethamine-induced hyperlocomotion in mice (Millan M. J. et al, 1998 J. Pharmacol. Exp. Ther. 287: 167-186), in a forced swim test in mice (Porsolt R. D. et al. Arch. Int. Pharmacodyn. 1977, 229:327-336), in meta-chlorophenyl piperazine (m-CPP) test on rats (Drug Dev. Res. 1989, 18:119-144), and in apomorphine, tryptamine, norepinephrine (ATN) test in rats (Arch. Int. Pharmacodyn. 1977, 227:238-253).
(§2) In Vitro Method for Determining Affinity for Binding to 5-HT2A and 5-HT2C Receptors
(§3) A small concentration of a radioligand having a great affinity for binding to a receptor was incubated with a tissue sample enriched with a certain receptor (1-5 mg of tissue) in a buffered medium (0.2-5 mL). Recombinant human HT2A and HT2C receptors were expressed in CHO-K1 or COS-7 cells and were also used for competitive binding. During incubation the radioligand bound to the receptor. When a binding balance was achieved, the receptors to which the radioligand was bound were separated from those to which said ligand was not bound, and the radioactivity of the receptor/radioligand complex was measured. The interaction of the tested compounds with receptors was tested in competitive binding experiments. Various concentrations of tested compounds were added to the incubation mixture containing a prepared tissue enriched with corresponding receptors and the radioligand. The radioligand binding was inhibited by the test compounds proportionally to the affinity of a certain compound for the receptor and to the concentration of the compound.
The radioligand used for the determination of binding to 5-HT2A receptor was [^3H]-ketanserin and the tissue used was human cortex or recombinant 5-HT2A receptor expressed in CHO-K1.

Another assay addresses T2, 5-HT2C receptor (Homo sapiens, UniProt P28335).
T2 construct: expressed in transfected cells; host or cells: CHO-K1 (or COS-7)
T2 sequence (P28335 33-458): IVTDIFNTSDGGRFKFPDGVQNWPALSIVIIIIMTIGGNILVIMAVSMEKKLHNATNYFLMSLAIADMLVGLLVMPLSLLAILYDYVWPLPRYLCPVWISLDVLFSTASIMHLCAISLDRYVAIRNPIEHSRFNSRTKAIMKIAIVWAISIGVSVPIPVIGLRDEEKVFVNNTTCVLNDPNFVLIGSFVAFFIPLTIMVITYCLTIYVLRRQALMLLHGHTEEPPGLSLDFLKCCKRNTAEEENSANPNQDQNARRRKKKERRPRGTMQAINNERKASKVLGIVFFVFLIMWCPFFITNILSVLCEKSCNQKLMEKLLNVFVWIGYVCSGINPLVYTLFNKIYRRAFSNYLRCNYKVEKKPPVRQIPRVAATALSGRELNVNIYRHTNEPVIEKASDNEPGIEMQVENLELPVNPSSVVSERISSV
The assay can be described thus: radioligand ([3H]mesulergine) competitive binding assay for 5-HT2C receptor. As to conditions: choroid plexus or recombinant 5-HT2C receptor expressed in CHO-K1 cells; for IC50: read-out: binding affinity to 5-HT2C serotonin receptor expressed as IC50 value; for Ki: read-out: binding affinity to 5-HT2C serotonin receptor, Ki value. The method, then: as §1, §2, §3
The radioligand used for the determination of binding to 5-HT2C receptor was [^3H]mesulergine and the tissue used was choroid plexus or recombinant 5-HT2C receptor expressed in CHO-K1 cells.

The structures appear in SMILES notation.

T1 sequence (P28223 whole entry): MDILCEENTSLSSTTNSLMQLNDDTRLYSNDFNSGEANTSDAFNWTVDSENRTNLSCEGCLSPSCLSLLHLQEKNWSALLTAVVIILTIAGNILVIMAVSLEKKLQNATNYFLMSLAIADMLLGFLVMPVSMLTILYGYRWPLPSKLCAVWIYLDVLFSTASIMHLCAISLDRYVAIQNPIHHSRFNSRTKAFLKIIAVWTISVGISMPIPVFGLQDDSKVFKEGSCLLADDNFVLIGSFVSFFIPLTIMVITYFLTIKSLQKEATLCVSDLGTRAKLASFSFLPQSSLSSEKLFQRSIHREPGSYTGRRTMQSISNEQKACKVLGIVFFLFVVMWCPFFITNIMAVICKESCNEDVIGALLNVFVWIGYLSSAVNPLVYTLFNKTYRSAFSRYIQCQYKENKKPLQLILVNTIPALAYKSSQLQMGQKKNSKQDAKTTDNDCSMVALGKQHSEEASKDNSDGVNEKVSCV

One may read the IC50 as the concentration that inhibits the measured activity by half. Broadly, the Ki is the equilibrium dissociation constant of an inhibitor or competing ligand from its target. For the compound `CN(C)CCCOCc1onc2c1-c1ccccc1Sc1ccccc1-2` [Compound 7, Dimethyl-[3-(2-oxa-8-thia-1-aza-dibenzo[e,h]azulen-3-ylmethoxy)-propyl]-amine], on 5-HT2A receptor, the IC50 was less than 200 nM and the inhibition constant (Ki) is less than 100 nM. Moreover, at 5-HT2C receptor, the IC50 is less than 200 nM and the Ki is less than 100 nM.
In the case of `Cc1onc2c1-c1ccccc1Sc1ccccc1-2` [Compound 1, 3-Methyl-2-oxa-8-thia-1-aza-dibenzo[e,h]azulene], on 5-HT2A receptor, the IC50 is less than 200 nM and the inhibition constant Ki was less than 100 nM. Further, on 5-HT2C receptor, the IC50 is less than 200 nM and the Ki is less than 100 nM.
